Target: GCN2 (Homo sapiens, UniProt Q9P2K8)
Test: GCN2 enzymatic endpoint assay: phosphorylation of GFP-eIF2α measured by TR-FRET (Lanthascreen)
Format: biochemical
Conditions: GCN2 biochemical IC50; 4 nM GCN2, 2 μM ATP, 80 nM GFP-eIF2α, 90 min RT; read-out: GCN2 activity
Procedure, shortened: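 Endpoint kinase reaction with 2 μM ATP and 80 nM GFP-labelled eIF2α substrate, run at room temperature for 90 min, then stopped with EDTA. Phospho-substrate detected by terbium-antibody TR-FRET, activity taken as the 520/495 nm emission ratio.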

Sequence of GCN2 (Q9P2K8 whole entry): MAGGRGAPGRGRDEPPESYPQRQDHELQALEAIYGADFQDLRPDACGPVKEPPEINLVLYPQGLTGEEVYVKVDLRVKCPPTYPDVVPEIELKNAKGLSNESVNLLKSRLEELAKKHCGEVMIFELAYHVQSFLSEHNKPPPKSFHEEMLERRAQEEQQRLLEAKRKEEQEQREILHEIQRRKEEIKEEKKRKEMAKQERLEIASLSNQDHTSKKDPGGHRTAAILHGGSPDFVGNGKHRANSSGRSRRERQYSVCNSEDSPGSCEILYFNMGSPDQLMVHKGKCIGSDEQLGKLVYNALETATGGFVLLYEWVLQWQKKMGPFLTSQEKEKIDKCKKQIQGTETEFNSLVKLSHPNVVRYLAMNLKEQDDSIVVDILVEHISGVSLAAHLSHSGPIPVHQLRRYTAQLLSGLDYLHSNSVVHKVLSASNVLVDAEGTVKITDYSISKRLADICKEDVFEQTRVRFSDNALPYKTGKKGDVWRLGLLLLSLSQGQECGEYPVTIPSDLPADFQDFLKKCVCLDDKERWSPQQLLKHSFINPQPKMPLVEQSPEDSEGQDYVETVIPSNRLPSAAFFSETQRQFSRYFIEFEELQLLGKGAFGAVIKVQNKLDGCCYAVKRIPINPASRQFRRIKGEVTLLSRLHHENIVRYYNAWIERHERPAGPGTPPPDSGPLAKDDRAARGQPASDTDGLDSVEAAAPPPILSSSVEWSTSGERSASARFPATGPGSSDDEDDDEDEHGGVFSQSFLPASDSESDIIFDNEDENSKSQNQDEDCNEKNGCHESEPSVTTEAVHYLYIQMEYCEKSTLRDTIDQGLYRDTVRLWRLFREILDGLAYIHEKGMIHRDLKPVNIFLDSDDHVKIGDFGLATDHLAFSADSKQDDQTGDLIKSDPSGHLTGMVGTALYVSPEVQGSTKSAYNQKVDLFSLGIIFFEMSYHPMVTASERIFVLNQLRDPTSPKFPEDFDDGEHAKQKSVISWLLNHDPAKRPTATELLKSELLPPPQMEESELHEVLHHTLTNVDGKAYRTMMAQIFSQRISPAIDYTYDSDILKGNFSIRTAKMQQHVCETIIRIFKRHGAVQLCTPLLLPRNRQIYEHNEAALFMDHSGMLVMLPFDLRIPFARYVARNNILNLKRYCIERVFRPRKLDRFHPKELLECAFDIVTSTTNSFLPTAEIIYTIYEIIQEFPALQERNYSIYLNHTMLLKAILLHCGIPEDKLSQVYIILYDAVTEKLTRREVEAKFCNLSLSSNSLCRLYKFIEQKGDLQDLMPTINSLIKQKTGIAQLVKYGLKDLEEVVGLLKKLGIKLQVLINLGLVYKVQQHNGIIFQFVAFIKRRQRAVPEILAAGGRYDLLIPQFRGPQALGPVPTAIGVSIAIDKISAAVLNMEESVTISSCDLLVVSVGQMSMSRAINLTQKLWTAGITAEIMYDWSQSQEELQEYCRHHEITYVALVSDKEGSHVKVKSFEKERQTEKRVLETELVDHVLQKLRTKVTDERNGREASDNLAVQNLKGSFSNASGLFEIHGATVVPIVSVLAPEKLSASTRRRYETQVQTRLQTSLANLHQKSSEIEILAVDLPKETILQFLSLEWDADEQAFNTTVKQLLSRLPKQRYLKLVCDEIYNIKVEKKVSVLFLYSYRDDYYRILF

IC50	SMILES
25 to 200 nM	Cc1nnc(-c2ccc(-n3nc(Br)c4cnc(N[C@@H]5CC[C@@H](P(C)(C)=O)C5)nc43)cc2)s1 [Example 57, ((1R,3R)-3-((3-bromo-1-(4-(5-methyl-1,3,4-thiadiazol-2-yl)phenyl)-1H-pyrazolo[3,4-d]pyrimidin-6-yl)amino)cyclopentyl)dimethylphosphine oxide]

Same assay, conditions: tested as described in Example 77; compound and/or hydrochloride, dihydrochloride or trifluoroacetic acid salt; read-out: IC 50 Activity

IC50	SMILES
< 25 nM	CNC(=O)[C@]1(C)CC[C@@H](Nc2ncc3c(Br)nn(-c4cc(OCCO)c5c(c4)OCC(=O)N5C)c3n2)C1 [(1R,3R)-3-[[3-bromo-1-[5-(2-hydroxyethoxy)-4-methyl-3-oxo-1,4-benzoxazin-7-yl]pyrazolo [3,4-d]pyrimidin-6-yl]amino]-N,1-dimethyl-cyclopentanecarboxamide]
25 to 200 nM	CNC(=O)[C@]1(C)CC[C@@H](Nc2ncc3c(Br)nn(-c4cc(N5CCNCC5)c5ncccc5c4)c3n2)C1
25 to 200 nM	O=C([C@@H]1CC[C@@H](Nc2ncc3c(Br)nn(-c4ccc5ncccc5c4)c3n2)C1)N1CCS(=O)(=O)CC1 [((1R,3R)-3-((3-bromo-1-(quinolin-6-yl)-1H-pyrazolo[3,4-d]pyrimidin-6-yl)amino)cyclo-pentyl)(1,1-dioxidothiomorpholino)methanone]
25 to 200 nM	O=C1CN(C(=O)[C@@H]2CC[C@@H](Nc3ncc4c(Br)nn(-c5cc(F)c6ncccc6c5)c4n3)C2)CN1CC1CC1 [1-[(1R,3R)-3-[[3-bromo-1-(8-fluoro-6-quinolyl)pyrazolo[3,4-d]pyrimidin-6-yl]amino]cyclopentanecarbonyl]-3-(cyclopropylmethyl)imidazolidin-4-one]
< 25 nM	CC(=O)OCC(=O)N1CCN(C(=O)[C@@H]2CC[C@@H](Nc3ncc4c(Br)nn(-c5cc(C#N)c6ncccc6c5)c4n3)C2)CC1 [2-(4-((1R,3R)-3-((3-bromo-1-(8-cyanoquinolin-6-yl)-1H-pyrazolo[3,4-d]pyrimidin-6-yl)amino)cyclopentane-1-carbonyl)piperazin-1-yl)-2-oxoethyl acetate]
< 25 nM	N#Cc1cc(-n2nc(Br)c3cnc(N[C@@H]4CC[C@@H](C(=O)N5CC(F)C5)C4)nc32)cc2cccnc12 [6-(3-bromo-6-(((1R,3R)-3-(3-fluoroazetidine-1-carbonyl)cyclopentyl)amino)-1H-pyrazolo [3,4-d]pyrimidin-1-yl)quinoline-8-carbonitrile]
25 to 200 nM	CNC(=O)[C@]1(C)CC[C@@H](Nc2ncc3c(Br)nn(-c4cc(N)c5ncccc5c4)c3n2)C1 [(1R,3R)-3-[[1-(8-amino-6-quinolyl)-3-bromo-pyrazolo[3,4-d]pyrimidin-6-yl]amino]-N,1-dimethyl-cyclopentane-carboxamide]
25 to 200 nM	CNC(=O)C1(C)CC[C@@H](Nc2ncc3c(Br)nn(-c4cc(OC(F)(F)F)cc(C(C)O)c4)c3n2)C1 (stereo partly drawn) [(3R)-3-[[3-bromo-1-[3-(1-hydroxyethyl)-5-(trifluoromethoxy)phenyl]pyrazolo [3,4-d]pyrimidin-6-yl]amino]-N,1-dimethyl-cyclopentanecarboxamide]
25 to 200 nM	CNC(=O)[C@]1(C)CC[C@@H](Nc2ncc3c(Br)nn(-c4ccc(-c5cccnc5)c(CN)c4)c3n2)C1 [(1R,3R)-3-[[1-[3-(aminomethyl)-4-(3-pyridyl)phenyl]-3-bromo-pyrazolo[3,4-d]pyrimidin-6-yl]amino]-N,1-dimethyl-cyclopentane-carboxamide]
< 25 nM	CN(C(=O)[C@]1(C)CC[C@@H](Nc2ncc3c(Br)nn(-c4cc(F)c5ncccc5c4)c3n2)C1)C(C)(C)CO [(1R,3R)-3-[[3-bromo-1-(8-fluoro-6-quinolyl)pyrazolo[3,4-d]pyrimidin-6-yl]amino]-N-(2-hydroxy-1,1-dimethyl-ethyl)-N,1-dimethyl-cyclopentanecarboxamide]
200 to 500 nM	COCCNC(=O)C12CCC(Nc3ncc4c(Br)nn(-c5ccc6ncccc6c5)c4n3)(CC1)C2 [4-((3-bromo-1-(quinolin-6-yl)-1H-pyrazolo [3,4-d]pyrimidin-6-yl)amino)-N-(2-methoxyethyl)bicyclo[2.2.1]heptane-1-carboxamide]
25 to 200 nM	CNC(=O)[C@@]1([C@H](C)C#N)CC[C@@H](Nc2ncc3c(Br)nn(-c4ccc(-c5nnc(C)s5)cc4)c3n2)C1 [(1S,3R)-3-[[3-bromo-1-[4-(5-methyl-1,3,4-thiadiazol-2-yl)phenyl]pyrazolo [3,4-d]pyrimidin-6-yl]amino]-1-[(1S)-1-cyanoethyl]-N-methyl-cyclopentane-carboxamide]
25 to 200 nM	CNC(=O)[C@]1(C)CC[C@@H](Nc2ncc3c(Br)nn(-c4ccc(-c5ncco5)c([C@@H](C)C#N)c4)c3n2)C1 [(1R,3R)-3-[[3-bromo-1-[3-[(1R)-1-cyanoethyl]-4-oxazol-2-yl-phenyl]pyrazolo[3,4-d]pyrimidin-6-yl]amino]-N,1-dimethyl-cyclopentane-carboxamide]
25 to 200 nM	CNC(=O)[C@]1(C)CC[C@@H](Nc2ncc3c(Br)nn(-c4ccc5ncsc5c4)c3n2)C1 [(1R,3R)-3-[[1-(1,3-benzothiazol-6-yl)-3-bromo-pyrazolo[3,4-d]pyrimidin-6-yl]amino]-N,1-dimethyl-cyclopentane-carboxamide]
25 to 200 nM	Fc1cc(-n2nc(Br)c3cnc(N[C@H]4CCOC4)nc32)cc2cccnc12 [3-bromo-1-(8-fluoro-6-quinolyl)-N-[(3S)-tetrahydrofuran-3-yl]pyrazolo [3,4-d]pyrimidin-6-amine]
25 to 200 nM	C[C@@H]1CN(C(=O)[C@@H]2CC[C@@H](Nc3ncc4c(Br)nn(-c5ccc6ncccc6c5)c4n3)C2)C[C@H](C)N1 [((1R,3R)-3-((3-bromo-1-(quinolin-6-yl)-1H-pyrazolo[3,4-d]pyrimidin-6-yl)amino)cyclo-pentyl)((3S,5R)-3,5-dimethylpiperazin-1-yl) methanone]
200 to 500 nM	CC1(CNC(=O)[C@@H]2CC[C@@H](Nc3ncc4c(Br)nn(-c5ccc6ncccc6c5)c4n3)C2)COC1 [(1R,3R)-3-((3-bromo-1-(quinolin-6-yl)-1H-pyrazolo[3,4-d]pyrimidin-6-yl)amino)-N-((3-methyloxetan-3-yl)methyl)cyclopentane-1-carboxamide]
25 to 200 nM	CNC(=O)[C@]1(C)CC[C@@H](Nc2ncc3c(Br)nn(-c4cc(CS(C)(=O)=O)c5ncccc5c4)c3n2)C1 [(1R,3R)-3-[[3-bromo-1-[8-(methylsulfonyl-methyl)-6-quinolyl]pyrazolo[3,4-d]pyrimidin-6-yl]amino]-N,1-dimethyl-cyclopentanecarboxamide]
200 to 500 nM	O=C([C@@H]1CC[C@@H](Nc2ncc3c(Br)nn(-c4ccc5ncccc5c4)c3n2)C1)N1CCC(O)(C(F)(F)F)CC1 [((1R,3R)-3-((3-bromo-1-(quinolin-6-yl)-1H-pyrazolo[3,4-d]pyrimidin-6-yl)amino)cyclo-pentyl)(4-hydroxy-4-(trifluoromethyl)piperidin-1-yl)methanone]
500 to 1000 nM	COc1cc(-n2nc(Br)c3cnc(N[C@@H]4CC[C@@H](C(=O)NCCS(C)(=O)=O)C4)nc32)ccn1
< 25 nM	C[C@@]1(C(=O)N2CCNC(=O)C2)CC[C@@H](Nc2ncc3c(Br)nn(-c4cc(F)c5ncccc5c4)c3n2)C1 [4-[(1R,3R)-3-[[3-bromo-1-(8-fluoro-6-quinolyl)pyrazolo[3,4-d]pyrimidin-6-yl]amino]-1-methyl-cyclopentanecarbonyl] piperazin-2-one]
< 25 nM	CC[C@@]1(C(=O)NC)CC[C@@H](Nc2ncc3c(I)nn(-c4cc(F)c5ncccc5c4)c3n2)C1 [(1R,3R)-1-ethyl-3-[[1-(8-fluoro-6-quinolyl)-3-iodo-pyrazolo[3,4-d]pyrimidin-6-yl]amino]-N-methyl-cyclopentanecarboxamide]
200 to 500 nM	CNC(=O)C1(C)CC[C@@H](Nc2ncc3c(Br)nn(-c4ccc5cnccc5c4)c3n2)C1 (mixture of isomers)
25 to 200 nM	CNC(=O)C1(C)CC[C@@H](Nc2ncc3c(Br)nn(-c4cccc(CCCO)c4)c3n2)C1 (stereo partly drawn) [(3R)-3-[[3-bromo-1-[3-(3-hydroxypropyl)phenyl]pyrazolo[3,4-d]pyrimidin-6-yl]amino]-N,1-dimethyl-cyclopentane-carboxamide]
25 to 200 nM	CNC(=O)[C@]1(C)CC[C@@H](Nc2ncc3c(Br)nn(-c4cc(F)c5ncc(C(C)(C)N)cc5c4)c3n2)C1 [(1R,3R)-3-[[1-[3-(1-amino-1-methyl-ethyl)-8-fluoro-6-quinolyl]-3-bromo-pyrazolo [3,4-d]pyrimidin-6-yl]amino]-N,1-dimethyl-cyclopentanecarboxamide]
25 to 200 nM	CNC(=O)[C@]1(C)CC[C@@H](Nc2ncc3c(Br)nn(-c4ccc(C#N)c(OCCO)c4)c3n2)C1 [(1R,3R)-3-[[3-bromo-1-[4-cyano-3-(2-hydroxyethoxy)phenyl]pyrazolo[3,4-d]pyrimidin-6-yl]amino]-N,1-dimethyl-cyclopentanecarboxamide]
25 to 200 nM	CNC(=O)[C@]1(C)CC[C@@H](Nc2ncc3c(Br)nn(-c4cc(CNCCC#N)c5ncccc5c4)c3n2)C1 [(1R,3R)-3-[[3-bromo-1-[8-[(2-cyanoethyl-amino)methyl]-6-quinolyl]pyrazolo[3,4-d]pyrimidin-6-yl]amino]-N,1-dimethyl-cyclopentanecarboxamide]
< 25 nM	O=C1OCC[C@]12CC[C@@H](Nc1ncc3c(Br)nn(-c4cc(F)c5ncccc5c4)c3n1)C2 [(5R,7R)-7-((3-bromo-1-(8-fluoroquinolin-6-yl)-1H-pyrazolo[3,4-d]pyrimidin-6-yl)amino)-2-oxaspiro[4.4]nonan-1-one]
25 to 200 nM	CNC(=O)[C@]1(C)CC[C@@H](Nc2ncc3c(Br)nn(-c4cc(F)c5nc(C(C)(C)N)ccc5c4)c3n2)C1 [(1R,3R)-3-[[1-[2-(1-amino-1-methyl-ethyl)-8-fluoro-6-quinolyl]-3-bromo-pyrazolo[3,4-d]pyrimidin-6-yl]amino]-N,1-dimethyl-cyclopentanecarboxamide]

SMILES	IC50
CC1(O)CC[C@@H](Nc2ncc3c(Br)nn(-c4cc(CCN)c5ncccc5c4)c3n2)C1 (stereo partly shown)	25 to 200 nM

From patent US11046699B2, “Pyrazolo-pyrimidin-amino-cycloalkyl compounds and their therapeutic uses” (RAPT THERAPEUTICS, INC., priority 2018, dated 2021)
